# In patent US7202280B2, “Methods for the treatment and prevention of pancreatitis and for induction of liver regeneration” (priority 2002, dated 2007):
# Experiments:
# [1] = system: syngenic and metallothionein-SSAT mice; assay: Hepatic, pancreatic and renal polyamine concentration in syngenic and metallothionein-SSAT mice after analogue; assay type: in vivo, mouse; settings: Tg mice, 24 h
# Protocol: (§1) α-methylspermidine, Bis-α-methylspermine and α-methylspermine were administered in saline. […] The data are expressed as means ±S.D. For statistical analysis, the two-tailed Student's t test was used.
# SSAT = assay: Hepatic, pancreatic and renal SSAT activity in syngenic and metallothionein-SSAT mice after analogue; assay type: in vivo, mouse; settings: 24 h
# Protocol: as §1
structure (smiles),measurement,setting,value
"CC(N)CCNCCCCN (stereo not drawn) [α-methylspermidine, 1-methylspermidine]",renal Putrescine,[1]; 50 mg/kg,179.10 pmoles/mg tissue wet weight
same,renal Spermidine,[1]; 50 mg/kg,231.02 ± 15.59 pmoles/mg tissue wet weight
same,renal Spermine,[1]; 50 mg/kg,896.89 ± 25.61 pmoles/mg tissue wet weight
same,renal α-Methylspermidine,[1]; 50 mg/kg,133.67 pmoles/mg tissue wet weight
same,hepatic N^1-Acetyl-spermidine,[1]; 100 mg/kg,293.66 pmoles/mg tissue wet weight
same,hepatic Putrescine,[1]; 100 mg/kg,834.88 pmoles/mg tissue wet weight
same,hepatic Spermidine,[1]; 100 mg/kg,286.11 pmoles/mg tissue wet weight
same,hepatic Spermine,[1]; 100 mg/kg,97.52 ± 52.21 pmoles/mg tissue wet weight
same,hepatic α-Methyl-spermidine,[1]; 100 mg/kg,676.44 pmoles/mg tissue wet weight
same,pancreatic N^1-Acetyl-spermidine,[1]; 100 mg/kg,656.51 pmoles/mg tissue wet weight
same,pancreatic Putrescine,[1]; 100 mg/kg,4467.46 pmoles/mg tissue wet weight
same,pancreatic Spermidine,[1]; 100 mg/kg,1539.88 ± 351.44 pmoles/mg tissue wet weight
same,pancreatic Spermine,[1]; 100 mg/kg,211.73 pmoles/mg tissue wet weight
same,pancreatic α-Methyl-spermidine,[1]; 100 mg/kg,731.63 pmoles/mg tissue wet weight
same,renal N^1-Acetylspermidine,[1]; 100 mg/kg,65.00 pmoles/mg tissue wet weight
same,renal Putrescine,[1]; 100 mg/kg,133.86 pmoles/mg tissue wet weight
same,renal Spermidine,[1]; 100 mg/kg,212.40 ± 10.9 pmoles/mg tissue wet weight
same,renal Spermine,[1]; 100 mg/kg,840.58 ± 67.32 pmoles/mg tissue wet weight
same,renal α-Methylspermidine,[1]; 100 mg/kg,136.61 pmoles/mg tissue wet weight
same,hepatic N^1-Acetyl-spermidine,[1]; 150 mg/kg,230.96 pmoles/mg tissue wet weight
same,hepatic Putrescine,[1]; 150 mg/kg,603.18 pmoles/mg tissue wet weight
same,hepatic Spermidine,[1]; 150 mg/kg,260.13 pmoles/mg tissue wet weight
same,hepatic Spermine,[1]; 150 mg/kg,79.41 ± 25.11 pmoles/mg tissue wet weight
same,hepatic α-Methyl-spermidine,[1]; 150 mg/kg,1206.94 pmoles/mg tissue wet weight
same,pancreatic N^1-Acetyl-spermidine,[1]; 150 mg/kg,185.50 pmoles/mg tissue wet weight
same,pancreatic Putrescine,[1]; 150 mg/kg,4457.91 pmoles/mg tissue wet weight
same,pancreatic Spermidine,[1]; 150 mg/kg,1244.49 ± 565.07 pmoles/mg tissue wet weight
same,pancreatic Spermine,[1]; 150 mg/kg,213.86 pmoles/mg tissue wet weight
same,pancreatic α-Methyl-spermidine,[1]; 150 mg/kg,942.74 pmoles/mg tissue wet weight
same,renal N^1-Acetylspermidine,[1]; 150 mg/kg,41.78 pmoles/mg tissue wet weight
same,renal Putrescine,[1]; 150 mg/kg,119.47 pmoles/mg tissue wet weight
same,renal Spermidine,[1]; 150 mg/kg,201.24 ± 19.1 pmoles/mg tissue wet weight
same,renal Spermine,[1]; 150 mg/kg,721.39 ± 64.84 pmoles/mg tissue wet weight
same,renal α-Methylspermidine,[1]; 150 mg/kg,148.99 pmoles/mg tissue wet weight
same,hepatic N^1-Acetyl-spermidine,[1]; 250 mg/kg,211.54 pmoles/mg tissue wet weight
same,hepatic Putrescine,[1]; 250 mg/kg,444.97 pmoles/mg tissue wet weight
same,hepatic Spermidine,[1]; 250 mg/kg,199.53 pmoles/mg tissue wet weight
same,hepatic Spermine,[1]; 250 mg/kg,36.38 ± 9.89 pmoles/mg tissue wet weight
same,hepatic α-Methyl-spermidine,[1]; 250 mg/kg,1293.76 pmoles/mg tissue wet weight
same,pancreatic N^1-Acetyl-spermidine,[1]; 250 mg/kg,137.01 pmoles/mg tissue wet weight
same,pancreatic Putrescine,[1]; 250 mg/kg,4637.87 pmoles/mg tissue wet weight
same,pancreatic Spermidine,[1]; 250 mg/kg,967.83 ± 396.04 pmoles/mg tissue wet weight
same,pancreatic Spermine,[1]; 250 mg/kg,157.23 pmoles/mg tissue wet weight
same,pancreatic α-Methyl-spermidine,[1]; 250 mg/kg,1166.56 pmoles/mg tissue wet weight
same,renal N^1-Acetylspermidine,[1]; 250 mg/kg,48.47 pmoles/mg tissue wet weight
same,renal Putrescine,[1]; 250 mg/kg,103.63 pmoles/mg tissue wet weight
same,renal Spermidine,[1]; 250 mg/kg,185.82 ± 18.56 pmoles/mg tissue wet weight
same,renal Spermine,[1]; 250 mg/kg,597.01 ± 91.36 pmoles/mg tissue wet weight
same,renal α-Methylspermidine,[1]; 250 mg/kg,169.73 pmoles/mg tissue wet weight
same,hepatic N^1-Acetyl-spermidine,[1]; 375 mg/kg,252.33 pmoles/mg tissue wet weight
same,hepatic Putrescine,[1]; 375 mg/kg,861.39 pmoles/mg tissue wet weight
same,hepatic Spermidine,[1]; 375 mg/kg,168.25 pmoles/mg tissue wet weight
same,hepatic Spermine,[1]; 375 mg/kg,41.95 ± 8.02 pmoles/mg tissue wet weight
same,hepatic α-Methyl-spermidine,[1]; 375 mg/kg,1012.46 pmoles/mg tissue wet weight
same,pancreatic N^1-Acetyl-spermidine,[1]; 375 mg/kg,95.41 pmoles/mg tissue wet weight
same,pancreatic Putrescine,[1]; 375 mg/kg,4826.59 pmoles/mg tissue wet weight
same,pancreatic Spermidine,[1]; 375 mg/kg,1002.33 ± 365.29 pmoles/mg tissue wet weight
same,pancreatic Spermine,[1]; 375 mg/kg,122.49 pmoles/mg tissue wet weight
same,pancreatic α-Methyl-spermidine,[1]; 375 mg/kg,1378.62 pmoles/mg tissue wet weight
same,renal N^1-Acetylspermidine,[1]; 375 mg/kg,44.65 pmoles/mg tissue wet weight
same,renal Putrescine,[1]; 375 mg/kg,127.41 pmoles/mg tissue wet weight
same,renal Spermidine,[1]; 375 mg/kg,173.73 ± 13.69 pmoles/mg tissue wet weight
same,renal Spermine,[1]; 375 mg/kg,580.26 ± 51.87 pmoles/mg tissue wet weight
same,renal α-Methylspermidine,[1]; 375 mg/kg,192.90 pmoles/mg tissue wet weight
same,"SSAT activity, Kidney","SSAT; Sg mice, 50 mg/kg",4.98 pmoles/10 min/mg tissue wet weight
same,"SSAT activity, Liver","SSAT; Sg mice, 50 mg/kg",3.74 pmoles/10 min/mg tissue wet weight
same,"SSAT activity, Pancreas","SSAT; Sg mice, 50 mg/kg",6.58 pmoles/10 min/mg tissue wet weight
same,"SSAT activity, Kidney","SSAT; Sg mice, 100 mg/kg",4.61 pmoles/10 min/mg tissue wet weight
same,"SSAT activity, Liver","SSAT; Sg mice, 100 mg/kg",3.77 pmoles/10 min/mg tissue wet weight
same,"SSAT activity, Pancreas","SSAT; Sg mice, 100 mg/kg",7.50 pmoles/10 min/mg tissue wet weight
same,"SSAT activity, Kidney","SSAT; Sg mice, 150 mg/kg",5.05 pmoles/10 min/mg tissue wet weight
same,"SSAT activity, Liver","SSAT; Sg mice, 150 mg/kg",4.16 pmoles/10 min/mg tissue wet weight
same,"SSAT activity, Pancreas","SSAT; Sg mice, 150 mg/kg",6.91 pmoles/10 min/mg tissue wet weight
same,"SSAT activity, Liver","SSAT; Sg mice, 250 mg/kg",3.75 pmoles/10 min/mg tissue wet weight
same,"SSAT activity, Pancreas","SSAT; Sg mice, 250 mg/kg",12.10 pmoles/10 min/mg tissue wet weight
same,"SSAT activity, Liver","SSAT; Sg mice, 375 mg/kg",9.52 pmoles/10 min/mg tissue wet weight
same,"SSAT activity, Pancreas","SSAT; Sg mice, 375 mg/kg",18.19 pmoles/10 min/mg tissue wet weight
same,"SSAT activity, Kidney","SSAT; Sg mice, 500 mg/kg",14.67 pmoles/10 min/mg tissue wet weight
same,"SSAT activity, Liver","SSAT; Sg mice, 500 mg/kg",16.06 pmoles/10 min/mg tissue wet weight
same,"SSAT activity, Pancreas","SSAT; Sg mice, 500 mg/kg",26.85 pmoles/10 min/mg tissue wet weight
same,"SSAT activity, Kidney","SSAT; Tg mice, 50 mg/kg",3.19 pmoles/10 min/mg tissue wet weight
same,"SSAT activity, Liver","SSAT; Tg mice, 50 mg/kg",74.88 pmoles/10 min/mg tissue wet weight
same,"SSAT activity, Pancreas","SSAT; Tg mice, 50 mg/kg",179.02 pmoles/10 min/mg tissue wet weight
same,"SSAT activity, Kidney","SSAT; Tg mice, 100 mg/kg",3.13 pmoles/10 min/mg tissue wet weight
same,"SSAT activity, Liver","SSAT; Tg mice, 100 mg/kg",74.88 pmoles/10 min/mg tissue wet weight
same,"SSAT activity, Pancreas","SSAT; Tg mice, 100 mg/kg",226.27 pmoles/10 min/mg tissue wet weight
same,"SSAT activity, Kidney","SSAT; Tg mice, 150 mg/kg",3.36 pmoles/10 min/mg tissue wet weight
same,"SSAT activity, Liver","SSAT; Tg mice, 150 mg/kg",81.59 pmoles/10 min/mg tissue wet weight
same,"SSAT activity, Pancreas","SSAT; Tg mice, 150 mg/kg",183.078 pmoles/10 min/mg tissue wet weight
same,"SSAT activity, Liver","SSAT; Tg mice, 250 mg/kg",95.04 pmoles/10 min/mg tissue wet weight
same,"SSAT activity, Pancreas","SSAT; Tg mice, 250 mg/kg",188.45 pmoles/10 min/mg tissue wet weight
same,"SSAT activity, Liver","SSAT; Tg mice, 375 mg/kg",135.53 pmoles/10 min/mg tissue wet weight
same,"SSAT activity, Pancreas","SSAT; Tg mice, 375 mg/kg",133.57 pmoles/10 min/mg tissue wet weight
